From patent publication US20240368135A1 (VERTEX PHARMACEUTICALS INCORPORATED, priority 2021, published 2024) come the findings set out here.

pIC50: −log10 of the molar value.

By pIC50 is commonly meant −log10 of the IC50, conventionally taken in molar units.

Chain of human NaV 1.8 (Q9Y5Y9 126-399 limits assumed): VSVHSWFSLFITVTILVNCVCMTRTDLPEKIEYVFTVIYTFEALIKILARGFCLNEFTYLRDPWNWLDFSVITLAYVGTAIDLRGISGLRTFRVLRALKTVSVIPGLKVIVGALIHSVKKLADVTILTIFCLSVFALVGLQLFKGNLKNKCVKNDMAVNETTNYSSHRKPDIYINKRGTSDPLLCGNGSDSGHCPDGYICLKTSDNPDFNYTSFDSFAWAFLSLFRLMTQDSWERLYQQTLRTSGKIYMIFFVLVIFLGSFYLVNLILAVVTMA
Chain of human NaV 1.8 (Q9Y5Y9 660-890 limits assumed): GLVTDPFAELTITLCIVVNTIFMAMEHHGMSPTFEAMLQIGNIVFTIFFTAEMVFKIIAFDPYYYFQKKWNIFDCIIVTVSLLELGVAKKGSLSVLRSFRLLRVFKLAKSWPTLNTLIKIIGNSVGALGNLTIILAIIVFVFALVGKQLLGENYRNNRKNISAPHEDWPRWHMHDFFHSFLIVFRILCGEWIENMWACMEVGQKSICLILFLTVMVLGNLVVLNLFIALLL
Chain of human NaV 1.8 (Q9Y5Y9 1148-1722 limits assumed): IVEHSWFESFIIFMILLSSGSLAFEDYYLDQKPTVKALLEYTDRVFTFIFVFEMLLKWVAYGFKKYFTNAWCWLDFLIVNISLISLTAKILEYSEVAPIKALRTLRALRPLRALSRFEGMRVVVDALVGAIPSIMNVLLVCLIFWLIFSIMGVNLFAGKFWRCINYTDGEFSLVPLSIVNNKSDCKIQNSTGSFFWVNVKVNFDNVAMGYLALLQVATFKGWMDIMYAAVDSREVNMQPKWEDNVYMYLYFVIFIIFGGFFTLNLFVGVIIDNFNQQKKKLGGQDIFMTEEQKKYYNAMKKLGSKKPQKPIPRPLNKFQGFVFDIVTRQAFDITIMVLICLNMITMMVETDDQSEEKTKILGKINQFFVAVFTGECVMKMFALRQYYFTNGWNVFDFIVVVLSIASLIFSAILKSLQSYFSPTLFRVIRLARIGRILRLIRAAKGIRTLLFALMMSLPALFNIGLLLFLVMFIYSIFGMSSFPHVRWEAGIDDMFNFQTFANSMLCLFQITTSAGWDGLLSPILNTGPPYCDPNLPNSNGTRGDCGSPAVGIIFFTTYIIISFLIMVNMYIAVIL

One assay has as its target human NaV 1.8 (Homo sapiens, UniProt Q9Y5Y9). The experiment in a line: E-VIPR assay detecting and measuring NaV inhibition properties. It counts as cell-based. The conditions noted are these: HEK cells expressing truncated human NaV 1.8; in the presence of human serum (compound numbers followed by *); read-out: IC50 in the E-VIPR Assay, performed in the presence of human serum. An outline of the steps: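 HEK cells expressing truncated, fully active human NaV1.8, with KIR2.1 BacMam co-transduction, were loaded with CC2-DMPE/DiSBAC6(3) voltage-sensing dyes for 20 min at room temperature. Compounds were tested in 11-point 3-fold dilutions (300 nM top final), optionally with 25% human serum, under electrical stimulation with FRET read-out.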
On to `COc1c([C@H]2[C@H](C(=O)Nc3ccnc(C(O)CO)c3)OC(C)(C)[C@H]2C)ccc(F)c1F` (relative stereo) [Compound 721, rel-(2R,3S,4S)-3-(3,4-difluoro-2-methoxyphenyl)-N-(2-(1,2-dihydroxyethyl)pyridin-4-yl)-4,5,5-trimethyltetrahydrofuran-2-carboxamide], for which the pIC50 is 6.00 to 7.00.
Consider `CCc1c(F)ccc([C@H]2C[C@@](C)(C(F)(F)F)O[C@@H]2C(=O)Nc2cn(S(C)(=O)=O)nc2C)c1OC` (stereo in doubt) [Compound 716, rel-(2S,3R,5S)-3-(3-ethyl-4-fluoro-2-methoxyphenyl)-5-methyl-N-(3-methyl-1-(methylsulfonyl)-1H-pyrazol-4-yl)-5-(trifluoromethyl)tetrahydrofuran-2-carboxamide], for which the pIC50 is at most 6.00.

Staying with this assay, now noted: HEK cells expressing truncated human NaV 1.8; no human serum; read-out: IC50 in the E-VIPR Assay.
As to `Cc1nocc1NC(=O)[C@@H]1O[C@@](C)(C(F)(F)F)[C@@H](C)[C@H]1c1ccc(F)c(F)c1OC[C@@H](C)N1CC2(COC2)C1` [Compound 624, (2R,3S,4S,5R)-3-[3,4-difluoro-2-[(2R)-2-(2-oxa-6-azaspiro[3.3]heptan-6-yl)propoxy]phenyl]-4,5-dimethyl-N-(3-methylisoxazol-4-yl)-5-(trifluoromethyl)tetrahydrofuran-2-carboxamide], the pIC50 is 6.00 to 7.00.
The same measure, in the same setting: the result for `COc1c([C@H]2[C@H](C(=O)Nc3ccc(C(=O)O)nc3)O[C@@](C)(C(F)(F)F)[C@H]2C)ccc(F)c1C(F)F` (single isomer, unassigned) [Compound 176] reads over 8.00.
Regarding `Cc1nn(C(F)F)cc1NC(=O)[C@@H]1O[C@@](C)(C(F)(F)F)[C@@H](C)[C@H]1c1ccc(F)c(F)c1OCCN1CCOCC1` [Compound 591, (2R,3S,4S,5R)-3-(3,4-difluoro-2-(2-morpholinoethoxy)phenyl)-N-(1-(difluoromethyl)-3-methyl-1H-pyrazol-4-yl)-4,5-dimethyl-5-(trifluoromethyl)tetrahydrofuran-2-carboxamide], the pIC50 is 7.00 to 8.00.
Regarding `Cc1nocc1NC(=O)[C@@H]1O[C@@](C)(C(F)(F)F)[C@@H](C)[C@H]1c1ccc(F)c(F)c1OCCN1CC(C)(F)C1` [Compound 630, (2R,3S,4S,5R)-3-(3,4-difluoro-2-(2-(3-fluoro-3-methylazetidin-1-yl)ethoxy)phenyl)-4,5-dimethyl-N-(3-methylisoxazol-4-yl)-5-(trifluoromethyl)tetrahydrofuran-2-carboxamide], the pIC50 was 7.00 to 8.00.
The same measure, in the same setting: the result for `COc1c(C2C(C(=O)Nc3ccn4nnnc4c3)OC(C)(C(F)(F)F)C2C)ccc(F)c1C` (single isomer, unassigned) [Compound 134, 3-(4-fluoro-2-methoxy-3-methyl-phenyl)-4,5-dimethyl-N-(tetrazolo[1,5-a]pyridin-7-yl)-5-(trifluoromethyl)tetrahydrofuran-2-carboxamide] reads over 8.00.
Turning to `COc1c([C@H]2[C@H](C(=O)NC3CCCCNC3=O)O[C@@](C)(C(F)(F)F)[C@H]2C)ccc(F)c1F` (stereo partly drawn) [Compound 299, (2R,3S,4S,5R)-3-(3,4-difluoro-2-methoxyphenyl)-4,5-dimethyl-N-(2-oxoazepan-3-yl)-5-(trifluoromethyl)tetrahydrofuran-2-carboxamide], the pIC50 is at most 6.00.
Still for that read-out and setting: with `C[C@H]1[C@@H](c2ccc(F)c(F)c2OCCO)[C@H](C(=O)Nc2cnc(N3CCOCC3)nc2)O[C@@]1(C)C(F)(F)F` [Compound 542, (2R,3S,4S,5R)-3-(3,4-difluoro-2-(2-hydroxyethoxy)phenyl)-4,5-dimethyl-N-(2-morpholinopyrimidin-5-yl)-5-(trifluoromethyl)tetrahydrofuran-2-carboxamide] the figure was at most 6.00.
As for `COCC(O)c1cc(NC(=O)[C@@H]2O[C@@](C)(C(F)(F)F)[C@@H](C)[C@H]2c2ccc(F)c(F)c2OCCN2CC3CC(C2)O3)ccn1` (single isomer, unassigned) [Compound 610, rel-(2R*,3S*,4S*,5R*)-3-(2-(2-(6-oxa-3-azabicyclo[3.1.1]heptan-3-yl)ethoxy)-3,4-difluorophenyl)-N-(2-(1-hydroxy-2-methoxyethyl)pyridin-4-yl)-4,5-dimethyl-5-(trifluoromethyl)tetrahydrofuran-2-carboxamide], the pIC50 was 7.00 to 8.00.
The same measure, in the same setting: the result for `CC(C)Oc1c([C@@H]2[C@@H](C(=O)Nc3ccnc(S(C)(=N)=O)c3)O[C@](C)(C(F)(F)F)[C@@H]2C)ccc(F)c1F` (single isomer, unassigned) [Compound 118] reads at most 6.00; that for `COc1c([C@H]2[C@H](C(=O)NC3(c4ccccc4)COC3)O[C@@](C)(C(F)(F)F)[C@H]2C)ccc(F)c1F` [Compound 306, (2R,3S,4S,5R)-3-(3,4-difluoro-2-methoxyphenyl)-4,5-dimethyl-N-(3-phenyloxetan-3-yl)-5-(trifluoromethyl)tetrahydrofuran-2-carboxamide], at most 6.00; that for `COc1c([C@H]2[C@H](C(=O)NCC3CC3)O[C@@](C)(C(F)(F)F)[C@H]2C)ccc(F)c1F` [Compound 270, (2R,3S,4S,5R)-N-(cyclopropylmethyl)-3-(3,4-difluoro-2-methoxyphenyl)-4,5-dimethyl-5-(trifluoromethyl)tetrahydrofuran-2-carboxamide], 6.00 to 7.00.
Still for that read-out and setting: the result for `COc1c([C@H]2[C@H](C(=O)Nc3ccnc(N4C(=O)CN(C)C[C@H]4CO)c3)O[C@@](C)(C(F)(F)F)[C@H]2C)ccc(F)c1F` [Compound 512, (2R,3S,4S,5R)-3-(3,4-difluoro-2-methoxyphenyl)-N-(2-((S)-2-(hydroxymethyl)-4-methyl-6-oxopiperazin-1-yl)pyridin-4-yl)-4,5-dimethyl-5-(trifluoromethyl)tetrahydrofuran-2-carboxamide] reads over 8.00.
For the compound `C[C@H]1[C@@H](c2ccc(F)c(F)c2OC(F)F)[C@H](C(=O)Nc2cncc(S(C)(=O)=O)c2)O[C@@]1(C)C(F)(F)F` (single isomer, unassigned) [Compound 96], the pIC50 is over 8.00.
As for `COc1c([C@H]2[C@H](C(=O)Nc3ccnc(N4C(=O)[C@H]5C[C@@H]4CN5C)c3)O[C@@](C)(C(F)(F)F)[C@H]2C)ccc(F)c1F` [Compound 490, (2R,3S,4S,5R)-3-(3,4-difluoro-2-methoxyphenyl)-4,5-dimethyl-N-(2-((1R,4R)-5-methyl-3-oxo-2,5-diazabicyclo[2.2.1]heptan-2-yl)pyridin-4-yl)-5-(trifluoromethyl)tetrahydrofuran-2-carboxamide], the pIC50 is 7.00 to 8.00.
For `C[C@H]1[C@@H](c2ccc(F)c(F)c2OC(F)F)[C@H](C(=O)Nc2ccnnc2)O[C@@]1(C)C(F)(F)F` (stereo in doubt) [Compound 64, rel-(2R,3S,4S,5R)-3-(2-(difluoromethoxy)-3,4-difluorophenyl)-4,5-dimethyl-N-(pyridazin-4-yl)-5-(trifluoromethyl)tetrahydrofuran-2-carboxamide], the pIC50 was over 8.00.
`COc1c([C@H]2[C@H](C(=O)Nc3ccnc(CN4CCOCC4)c3)O[C@@](C)(C(F)(F)F)[C@H]2C)ccc(F)c1F` [Compound 181, (2R,3S,4S,5R)-3-(3,4-difluoro-2-methoxyphenyl)-4,5-dimethyl-N-(2-(morpholinomethyl)pyridin-4-yl)-5-(trifluoromethyl)tetrahydrofuran-2-carboxamide]: the pIC50 was 7.00 to 8.00.
In the case of `Cc1ccc(NC(=O)C2OC(C)(C(F)(F)F)C(C)C2c2ccc(F)c(F)c2OC2CC(O)C2)cn1` [Compound 661, (2R,3S,4S,5R)-3-(3,4-difluoro-2-((1S,3R)-3-hydroxycyclobutoxy)phenyl)-4,5-dimethyl-N-(6-methylpyridin-3-yl)-5-(trifluoromethyl)tetrahydrofuran-2-carboxamide], the pIC50 is 7.00 to 8.00.
In the case of `COc1c([C@H]2[C@H](C(=O)Nc3cn(C4COC4)nc3C)O[C@@](C)(C(F)(F)F)[C@H]2C)ccc(F)c1F` (single isomer, unassigned) [Compound 330], the pIC50 is over 8.00.
The same measure, in the same setting: with `COc1c([C@@H]2[C@@H](C(=O)Nc3ccnc(S(=O)(=O)N(C)C)c3)O[C@](C)(C(F)(F)F)[C@@H]2C)ccc(F)c1F` (stereo in doubt) [Compound 448, rel-(2S,3R,4R,5S)-3-(3,4-difluoro-2-methoxyphenyl)-N-(2-(N,N-dimethylsulfamoyl)pyridin-4-yl)-4,5-dimethyl-5-(trifluoromethyl)tetrahydrofuran-2-carboxamide] the figure was at most 6.00; with `Cc1c(F)ccc(C2C(C(=O)Nc3ccn(C)c(=O)c3)OC(C)(C(F)(F)F)C2C)c1OC(F)F` (stereo not drawn) [Compound 98, 3-[2-(difluoromethoxy)-4-fluoro-3-methyl-phenyl]-4,5-dimethyl-N-(1-methyl-2-oxo-4-pyridyl)-5-(trifluoromethyl)tetrahydrofuran-2-carboxamide], over 8.00; with `COc1c([C@H]2[C@H](C(=O)N[C@@H]3C[C@H]3c3cnn(C)c3)O[C@@](C)(C(F)(F)F)[C@H]2C)ccc(F)c1F` (relative stereo) [Compound 266, rel-(2R*,3S*,4S*,5R*)-3-(3,4-difluoro-2-methoxyphenyl)-4,5-dimethyl-N-((1R,2S)-2-(1-methyl-1H-pyrazol-4-yl)cyclopropyl)-5-(trifluoromethyl)tetrahydrofuran-2-carboxamide], at most 6.00.
Consider `COC1CN(CCOc2c([C@H]3[C@H](C(=O)Nc4conc4C)O[C@@](C)(C(F)(F)F)[C@H]3C)ccc(F)c2F)C1` [Compound 627, (2R,3S,4S,5R)-3-(3,4-difluoro-2-(2-(3-methoxyazetidin-1-yl)ethoxy)phenyl)-4,5-dimethyl-N-(3-methylisoxazol-4-yl)-5-(trifluoromethyl)tetrahydrofuran-2-carboxamide], for which the pIC50 was 7.00 to 8.00.
